Measured values: ChEMBL document CHEMBL1129913, “Synthesis and cytotoxicity of novel artemisinin analogs” (Bioorg Med Chem Lett, 1997)
≈ marks a conversion by molar mass, not a printed value.

Legend:
SK-OV-3 [1] = assay: Compound was tested for in vitro cytotoxicity against SK-OV-3 (human ovary carcinoma) cell line; format: functional, cell-based; conditions: SK-OV-3, Female gonad
Vero = assay: Compound was tested for in vitro cytotoxicity against VERO (African green monkey kidney) cell line; format: functional, cell-based; conditions: Chlorocebus sabaeus
KB = assay: Compound was tested for in vitro cytotoxicity against KB (human epidermoid carcinoma) cell line; format: functional, cell-based
P388 [2] = assay: Compound was tested for in vitro cytotoxicity against P388 (murine lymphocytic leukemia) cell line; format: functional, cell-based; conditions: Mus musculus
SK-OV-3 [3] = assay: Compound was tested for in vitro cytotoxicity against SK-OV-3 (human ovary carcinoma) cell line;No activity; format: functional, cell-based, Female gonad
P388 [4] = assay: Compound was tested for in vitro cytotoxicity against P388 (murine lymphocytic leukemia) cell line;No activity; format: functional, cell-based, Mus musculus
SK-OV-3 [5] = assay: Compound was tested for in vitro cytotoxicity against SK-OV-3 (human ovary carcinoma) cell line; No activity; format: functional, cell-based, Female gonad

In the case of `CC[C@H]1O[C@@H]2O[C@@]3(C)CC[C@H]4[C@H](C)CC[C@@H]([C@H]1C)[C@@]24OO3`, the IC50 (SK-OV-3 [1]) was 33 µg/mL (≈ 111 µM), the IC50 (Vero) was 30 µg/mL (≈ 101 µM) and the IC50 (KB) was 20 µg/mL (≈ 67.5 µM). For the same compound, the IC50 (P388 [2]) was 5.5 µg/mL (≈ 18.6 µM).
In the case of `CCCC[C@H]1O[C@@H]2OC3(C)CC[C@H]4[C@H](C)CC[C@@H]([C@H]1C)[C@@]24OO3` (single isomer, unassigned), the IC50 (SK-OV-3 [1]) was 40 µg/mL (≈ 123 µM), the IC50 (Vero) was 15 µg/mL (≈ 46.2 µM) and the IC50 (KB) was 4.5 µg/mL (≈ 13.9 µM). It also gave an IC50 (P388 [2]) of 40 µg/mL (≈ 123 µM).
With `CCO[C@H]1O[C@@H]2OC3(C)CCC4[C@H](C)CC[C@@H]([C@H]1C)[C@]42OO3` (single isomer, unassigned) the IC50 (SK-OV-3 [3]) was “Not Active”, the IC50 (P388 [4]) was “Not Active” and the IC50 (Vero) was 28 µg/mL (≈ 89.6 µM). For the same compound, the IC50 (KB) was 15 µg/mL (≈ 48 µM).
For `C[C@H]1[C@@H](Cc2ccccc2)O[C@@H]2OC3(C)CCC4[C@H](C)CC[C@@H]1[C@]42OO3` (single isomer, unassigned), the IC50 (SK-OV-3 [1]) was 32 µg/mL (≈ 89.3 µM), the IC50 (P388 [4]) was “Not Active” and the IC50 (Vero) was 15 µg/mL (≈ 41.8 µM). The IC50 (KB) was 13 µg/mL (≈ 36.3 µM).
For `C[C@@H]1CC[C@H]2[C@@H](C)CO[C@@H]3OC4(C)CC[C@@H]1[C@]32OO4` (single isomer, unassigned) [DEOXOARTEMISININ], the IC50 (SK-OV-3 [1]) was 40 µg/mL (≈ 149 µM), the IC50 (P388 [4]) was “Not Active” and the IC50 (Vero) was 30 µg/mL (≈ 112 µM). The IC50 (KB) was 24 µg/mL (≈ 89.4 µM).
For `C[C@@H]1CC[C@H]2[C@@H](C)C(=O)O[C@@H]3O[C@@]4(C)CC[C@@H]1[C@]32OO4` [ARTEMISININ], the IC50 (Vero) was 31 µg/mL (≈ 110 µM), the IC50 (SK-OV-3 [5]) was “Not Active” and the IC50 (KB) was 16 µg/mL (≈ 56.7 µM). For the same compound, the IC50 (P388 [2]) was 28 µg/mL (≈ 99.2 µM).
For `CCN(CC)Cc1ccc(C(=O)O[C@@H]2O[C@@H]3OC4(C)CCC5[C@H](C)CC[C@@H]([C@H]2C)[C@]53OO4)cc1` (single isomer, unassigned), the IC50 (SK-OV-3 [3]) was “Not Active”, the IC50 (P388 [4]) was “Not Active” and the IC50 (Vero) was 15 µg/mL (≈ 31.7 µM). For the same compound, the IC50 (KB) was 3 µg/mL (≈ 6.33 µM).
In the case of `C[C@H]1[C@@H](CCCC(=O)O)O[C@@H]2OC3(C)CCC4[C@H](C)CC[C@@H]1[C@]42OO3` (single isomer, unassigned), the IC50 (SK-OV-3 [3]) was “Not Active”, the IC50 (P388 [4]) was “Not Active” and the IC50 (Vero) was 30 µg/mL (≈ 84.6 µM). It also gave an IC50 (KB) of 32 µg/mL (≈ 90.3 µM).
`C[C@@H]1CCC2[C@@H](C)CCO[C@@H]3OC4(C)CCC1C23OO4` (single isomer, unassigned) was tested, and the IC50 (SK-OV-3 [3]) was “Not Active”, the IC50 (Vero) was 30 µg/mL (≈ 106 µM) and the IC50 (KB) was 22 µg/mL (≈ 77.9 µM). The IC50 (P388 [2]) was 8 µg/mL (≈ 28.3 µM).
